Laboratory results from patent US6867235B2, “Helianthrone derivatives as anti-cancer agents” (Yeda Research and Development Co. Ltd., priority 2000, dated 2005).

Tests used:
LAN5 neuroblastoma cells = assay: MTT cell viability in complete darkness, LAN5 cells; assay type: cell-based, human; conditions: exposure at least 72 hours, 0.1-20 μM
Method: (§1) Human HL-60 leukemic cells were grown in RPMI-1640 supplemented with 15% fetal calf serum, […] and 100 units/ml penicillin-streptomycin. Human erythroleukemia K-562 cells (derived from a chronic myeloid leukemia pateient) were grown in the same medium supplemented with 10% fetal calf serum. These cells and the human U251 glioblastoma, U87MG glioblastoma and LAN5 neuroblastoma cells used in the experiments are available from the ATCC. All cell lines were cultured in a humidified 5% CO2/95% air atmosphere at 37° C.
(§2) Cell viability was monitored by the MTT assay which measures reduction of 3-(4,5-dimethylthiazol-2-yl)-2,5-diphenyl tetrazolium bromide to formasan by mitochondria of viable cells as described in Mossman, T., J. Immunogen., 21, 235-248 (1983). The cells are incubated with MTT for four hours at 37° C. and analyzed in an ELISA reader at 560 nm. The optical density of formasan generated by untreated cell cultures (O.D. control) is defined as one MTT unit. The number of MTT units in culture samples undergoing treatments is calculated as the ratio (O.D.sample−O.D.blank)/O.D.control).
(§3) Three human malignant cell lines were evaluated to sensitivity to dimethyl TMH in vitro. […] The medium was aspirated, the adherent monolayer was washed with phosphate-buffered saline, and cell viability was monitored by the MTI assay.

[1] = test system: U251 human glioblastoma cells; assay: Cell cycle and DNA content analysis (propidium iodide, FACS) in the dark; assay type: cell-based; conditions: for cell cycle arrest: U251, dark
From the text: The cells were then stained with propidium iodide, washed with PBS and analyzed in a fluorescence activated cell sorter (FACS). A computer program arranged the DNA-related fluorescence as follows: the minimal amount of fluorescence is considered to be one whole set of cellular DNA related to the resting G1 phase. A double amount of fluorescence is considered to be G2 phase, in which the whole genome is duplicated following complete DNA synthesis, and the in-between amounts are considered to be the DNA synthetic S-phase, in which the total DNA synthesis is not yet completed.

tumor neovascularization = assay: Tumor neovascularization in tumor-bearing mice; conditions: mouse, in vivo
From the text: These hitherto unknown attributes were detected while studying the effects of hypericin and of helianthrone derivatives on breast adenocarcinoma tumors induced in mice with the DA-3^HI cell line and on murine anaplastic squamous carcinoma tumors induced with the SQ-2 cell line. Both are highly metastatic tumors and if surgically resected after having reached a diameter larger than 5 mm, the mice will go on to develop metastases in the lungs and liver. The metastases cause death of the animals within approximately two months following surgery.
By preventing development of new blood vessels to supply a growing metastasis, the rapidly growing metastatic focus is deprived of nutrients and oxygen for its rapidly multiplying cells and the lesion degenerates.

[2] = test system: U251 human glioblastoma cells; assay type: cell-based; conditions: U251, complete darkness, exposure at least 72 hours, 0.1-20 μM
Method: as §1, §2
Three human malignant cell lines were evaluated to sensitivity to dimethyl TMH in vitro. […] The medium was aspirated, the adherent monolayer was washed with phosphate-buffered saline, and cell viability was monitored by the MTI assay. […]

[3] = test system: anaplastic squamous cell carcinoma tumors; assay: Tumor growth in mice bearing anaplastic squamous cell carcinoma tumors; assay type: in vivo, BALB/c mice; conditions: 200 μg/mouse every other day
[4] = test system: human malignant glioblastoma cell lines; assay: Photodynamic induction of cell death in glioblastoma cell lines with light; assay type: cell-based
Method: Cell killing by dimethyl-TMH occurred at doses in which hypericin had no effect on the cultures. […] The mechanisms that operate in the dark were very different from those that mediate light-induced photosensitization. In the dark, cell death occurs approximately four days after the compound is administered, whereas the cells died within 2-3 hours with light.
Photodynamic (PD) stress is the level of phototoxicity inflicted upon target cells by photodynamic compounds and exposure to light. Light irradiation was performed from a fluorescent source of two parallel 40 Watts tubes placed at a fixed distance of 16 cm and measured to emit an incidence of 4 mWatt/cm^2. Light intensities were quantitated using the IL 1350 Radiometer/Photometer, from International Light Inc., U.S.A.

[5] = test system: SQ2 anaplastic squamous cell carcinoma; assay: Tumor foci in BALB/c mice bearing SQ2 squamous cell carcinoma treated with dimethyl-TMH; assay type: in vivo; conditions: for number of tumor foci / multifocal spread of the tumor: SQ2 tumor-bearing mice versus control
Method: The effective cytocidal activity of dimethyl-TMH in vitro encouraged the evaluation of its safety and anti-tumoral efficacy profile in tumor-bearing mice. Experiments were carried out in mice bearing tumors derived from the SQ2 highly metastatic anaplastic squamous cell carcinoma (SCC) line. This tumor develops as multifocal centers that spread at the vicinity of the primary tumor and metastases develop approximately two months after cell inoculation. Treatments with 300-600 μM dimethyl-TMH/mouse, administered twice or three-times a week were initiated when the tumors reached 5-7 mm in diameter.
When the primary tumors reached a diameter of 5 mm, therapy with 300 μM dimethyl-TMH/mouse, administered intraperitoneally twice per week, was initiated. Three weeks after the initiation of therapy, the number of tumor foci, which have developed at the primary tumor site, was recorded.

U87MG glioblastoma cells = assay: MTT cell viability in complete darkness, U87MG cells; assay type: cell-based, human
Method: as §1, §2, §3

[6] = test system: human peripheral blood lymphocytes (PBL); assay: MTT viability of primary peripheral blood lymphocytes in the dark and with light; assay type: cell-based; conditions: 72 hours
Method: as §2
Human peripheral blood lymphocytes (PBL) are non-proliferating cells in the absence of mitogenic stimuli. The effects of different doses of dimethyl-TMH on PBL were examined in the presence or absence of irradiation with polychromatic white light. PBL (post-mitotic) were plated (2×10^5 cells/well) in two separate round bottom 96-well plates (in triplicates). Dimethyl-TMH was added to the cultures. One plate was kept in the dark, and the other was exposed to polychromatic white light at a fluence rate of 8 mW/cm^2 for 30 min (a total of 14.4 J/cm^2). Both plates were then cultured at 37° C., 5% CO2 for 72 hours and cell viability was assayed by the MTT assay.

[7] = test system: SQ2 highly metastatic anaplastic squamous cell carcinoma; assay: Survival of SQ2 squamous cell carcinoma-bearing mice treated with dimethyl-TMH; assay type: in vivo, BALB/c mice
Method: In another experiment, BALB/c mice were inoculated with 5×10^5 cells of the SQ2 highly metastatic anaplastic squamous cell carcinoma line, intradermally in shaved backs. When the primary tumors reached a diameter of 3-4 mm, i.p. administration of dimethyl TMH 200 μg/mouse (400 μM/mouse) was initiated on day 7 after tumor cell inoculation and then administered twice weekly to the tumor-bearing mice 2× per week for six weeks (total of 12 doses). Animal survival was then followed. […] This appears to be the result of reduced metastatic growth as evident from Table 1 in Example 4 above.

[8] = Tolerability of intraperitoneal administration in mice; assay type: in vivo, BALB/c mice; conditions: i.p. on a daily basis for one week
[9] = 300 μM/mouse i.p. twice per week
[10] = 21 days after start of therapy, 300 μM/mouse i.p. twice per week

## COc1cc(OC)c2c3c(OC)cc(OC)c4c(=O)c5ccc(C)cc5c(c43)c3c4cc(C)ccc4c(=O)c1c23 [dimethyl-TMH, 10,13-dimethyl-1,3,4,6-tetramethoxy-helianthrone]
LAN5 neuroblastoma cells
  cell viability (MTT): Cell viability was lost
[1]; 10 μM, 24, 48, 72 hours
  proportion of cells in the S-phase with duration of exposure: increased steadily
[1]; 10 μM
  cell cycle arrest: arrest at mid-S phase
[1]; 20 μM
  cell cycle arrest: exclusive arrest at the S phase
[1]; glioblastoma and neuroblastoma cells
  phases of the cell replication cycle at which malignant cells are arrested: mid S and G2 phases
Tumor neovascularization
  neovascularization of tumors: prevented neovascularization
[2]
  cell viability (MTT): Cell viability was lost
[3]
  tumor growth compared to untreated tumor-bearing control mice: significant inhibition of tumor growth
[4]; treatment in conjunction with light
  photodynamic induction of cell death compared with hypericin: more potent than hypericin
[4]; with light
  time to cell death: 2 to 3 h
[5]; [9]
  toxicity of therapeutic doses to the animals: non-toxic
  treated mice in which the primary tumors hardened and fell off: 5
[5]; [10]
  number of mice with 1 focus: 8
  number of mice with 2 foci: 1
  number of mice with 3 foci: 0
  number of mice with 4 foci: 0
[5]
  number of tumor foci / multifocal spread of the tumor: considerably reduced
[5]; listed as dimethyl TMH
  number of tumor foci / multifocal spread of the tumor: completely inhibited
U87MG glioblastoma cells; complete darkness, exposure at least 72 hours, 0.1-20 μM
  cell viability (MTT): Cell viability was lost
U87MG glioblastoma cells; in the dark
  loss of cell viability compared with hypericin: more effective than the treatment with hypericin
[6]; normal non-proliferating PBL, absence of light irradiation
  effect on cell viability: no effect
[6]; polychromatic white light 8 mW/cm2 for 30 min (14.4 J/cm2), MTT
  LD50 (cell death after photosensitization): approximately 0.65 μM
[7]; 200 μg/mouse (400 μM/mouse) i.p. twice weekly for six weeks (12 doses)
  prolongation of animal survival compared to untreated controls: approximately 40.3%
[7]; 200 μg/mouse i.p. twice weekly for six weeks
  primary tumor growth during the treatment: continued to grow
[8]
  adverse effect on the animals: no adverse effect
